Test results taken from patent US20080312261A1, “4- (4-Bromo-2-Fluoroanilino) -6- Methoxy-7- (1-Methylpiperidin-4-Ylmethoxy) Quinazoline Monohydrate” (priority 2005, published 2008).
Where two headings read alike, the source gives them in different places.

Columns and labels:
[1] = Dynamic Vapour Sorption (DVS) analysis; format: physicochemical; conditions: for kinetic stability: on the DVS timescale
Method: Analytical Instrument: Surface Measurements Systems Dynamic Vapour Sorption Analyser, calibrated with a saturated salt solution, such as sodium chloride.
About 5 mg of material contained in a quartz holder at a specified temperature was subjected to humidified nitrogen at a flow rate of 200 ml/minute of nitrogen at the following relative humidities (RH): 0, 20, 40, 60, 80, 95, 80, 60, 40, 20, 0% RH in duplicate.
The weight of the material at a particular relative humidity was constantly monitored using an in-situ balance until it was stable according to a weight criteria of 0.002% weight change per minute averaged over 10 minutes. If the weight was still changing then it stayed at a particular relative humidity until the weight was stable (up to a maximum time of 12 hours).

[2] = tested on: human umbilical vein endothelial cells (HUVEC); conditions: as disclosed in WO 01/32651, cited from earlier work
[3] = tested on: femoral epiphyseal growth plates; conditions: 100 mg/kg/day in female rats, 14 days oral; p<0.001 (one-tailed Students' t-test); cited from earlier work
[4] = tested on: CaLu-6 tumour xenografts; conditions: 50 mg/kg, orally once daily; CaLu-6 xenografts in mice; p<0.001 (Mann-Whitney Rank Sum Test); cited from earlier work

COc1cc2c(Nc3ccc(Br)cc3F)ncnc2cc1OCC1CCN(C)CC1 [ZD6474 anhydrous, 4-(4-bromo-2-fluoroanilino)-6-methoxy-7-(1-methylpiperidin-4-ylmethoxy)quinazoline]
hygroscopicity by DVS ([1]; 25° C.): non-hygroscopic | water absorbed ([1]; at 95% relative humidity, 25° C.): 0.63 % weight/weight | kinetic stability [1]: kinetically stable

COc1cc2c(Nc3ccc(Br)cc3F)ncnc2cc1OCC1CCN(C)CC1 [ZD6474 monohydrate, 4-(4-bromo-2-fluoroanilino)-6-methoxy-7-(1-methylpiperidin-4-ylmethoxy)quinazoline]
rate of weight loss on storage ([1]; 0% relative humidity at 25° C., once surface moisture has been removed): extremely slow | rate of weight loss on storage ([1]; 0% relative humidity at 40° C.): surprisingly slow | hygroscopicity by DVS ([1]; 25° C.): non-hygroscopic | conversion to the anhydrous form of ZD6474 during drying ([1]; 25° C. and 0% relative humidity): less than 5% | kinetic stability [1]: kinetically stable

COc1cc2c(Nc3ccc(Br)cc3F)ncnc2cc1OCC1CCN(C)CC1 [ZD6474, 4-(4-bromo-2-fluoroanilino)-6-methoxy-7-(1-methylpiperidin-4-ylmethoxy)quinazoline]
IC50 ([2]; EGF-stimulated HUVEC proliferation, read-out: EGF IC50): 0.17 µM | IC50 ([2]; VEGF-stimulated HUVEC proliferation, read-out: VEGF IC50): 0.06 µM | IC50 ([2]; basal HUVEC proliferation, read-out: Basal IC50): > 3 µM | increase in epiphyseal growth plate hypertrophy [3]: 75% | inhibition of tumour growth [4]: 78%
